A melting point compilation (Tetko et al.; mined from patent text by program, amines drawn as free bases though some values may be those of a salt)

Row | Structure (SMILES) | melting point
1 | O=C(NCc1ccncc1)Nc1cccc2ccccc12 | 178 °C
2 | O=C(Nc1nnn[nH]1)c1c[nH]c(=S)n1C1CCc2c(F)cc(F)cc2C1 (stereo unspecified) | 228 to 230 °C
3 | C#CCN1C(=O)CC(c2ccccc2)N=C1c1ccccc1 (stereo unspecified) | 74.5 to 77 °C
4 | O=c1cccccc1N1CCN(c2cccc(C(F)(F)F)c2)CC1 | 112 to 114 °C
5 | COc1ccccc1-c1nc2nc(SC)nnc2c(=O)[nH]1 | 268 °C
6 | CCOC(=O)CNS(=O)(=O)C(F)(F)F | 73 to 75 °C
7 | CC(=O)c1cc(C(F)(F)F)nn1-c1ccc(NC(=O)c2cccnc2F)cc1 | 188 to 189 °C
8 | O=C(Nc1nc(-c2ccco2)c(-c2ccc(=O)n(Cc3ccccc3)c2)s1)c1ccncc1 | 215 to 218 °C
9 | CCCCc1ncc(/C=C(\Cc2cccs2)C(=O)O)n1Cc1ccc(OCC(=O)O)cc1 | 192 to 194 °C
10 | COc1cc(CN2CCN(Cc3ccc(NC(=O)C4=Cc5cc(-c6ccc(C)cc6)ccc5CC4)cc3)CC2)cc(OC)c1OC | 143 to 144 °C
11 | CN(C)c1ccc(-c2nc(S)nnc2-c2ccc(F)cc2)cc1 | 262 to 264 °C
12 | COC(=O)N=c1[nH]c2ccccc2n1C1CCN(Cc2ccccc2)CC1 | 170 °C
13 | CCC#COc1ccc(S(=O)(=O)NC(CSc2ccccn2)C(=O)NO)cc1 (stereo unspecified) | 115 to 120 °C
14 | C[C@H]1C=CC(S(=O)(=O)c2ccccc2)=C[C@H](C)[C@H]1O | 100 to 102 °C
15 | Cc1cccc(C)c1CNc1cc(C(=O)N(C)C)cc2c1nc(C)n2COCc1ccccc1 | 55 to 56 °C
16 | COC(=O)COc1ccc(C(=O)CNC(=O)c2ccc(C#N)cc2)cc1 | 200 to 203 °C
17 | O=S1(=O)c2cccc3cccc(c23)N1CCN1CCC(Cc2cnc3ccccc3c2)CC1 | 150 °C
18 | Cc1ccc([N+](=O)[O-])c(C(N)=O)c1 | 172 to 175 °C

Row | Structure (SMILES) | melting point
19 | CCOC1=NS(=O)C(C(N)=O)=C1Br (stereo unspecified) | 168 to 172 °C
20 | N#Cc1cccc(NC(C(=O)O)c2ccccc2)c1 (stereo unspecified) | 159 to 162 °C
21 | CCOC(OCC)c1nc(N)nc(N)c1-c1cccc(Cl)c1Cl | 214 to 217 °C
22 | CCCOn1c(C)nc(N2CCc3ccccc3CC2)c(C#N)c1=O | 132 to 134 °C
23 | Nc1ccc(NC2CCCCCCC2)c([N+](=O)[O-])c1 | 161 °C
24 | NS(=O)(=O)c1cc(S(N)(=O)=O)c(C(Cl)=C(Cl)Cl)cc1NCc1ccccc1 | 188 to 190 °C
25 | CON(C)C(=O)c1ccc(-c2ccc(CBr)cc2)cc1 | 105 to 106 °C
26 | COc1cc(CCl)nc(N)n1 | 89 to 90 °C
27 | CCOCc1nc2c(N)nc3ccccc3c2n1CC1(N)CCCCC1 | 166 to 168 °C
28 | CN(C)CCNC(=O)CCn1c(-c2ccc(Cl)cc2)nc2cccnc21 | 142 to 143 °C
29 | CCSC1COC(Cn2cncn2)(c2ccc(Cl)cc2Cl)C1 (stereo unspecified) | 64 °C
30 | O=C(CCC(=O)Sc1ccc(O)cc1)Sc1ccc(O)cc1 | 226 to 229 °C
31 | COC1(OC)C2(Cl)C(Cl)=C(Cl)C1(Cl)C1OC(=O)OC12 (stereo unspecified) | 160 to 162 °C
32 | CCC(Oc1cccc([N+](=O)[O-])c1)C(=O)NCc1ccccc1 (stereo unspecified) | 114 to 116 °C
33 | Cc1ccc2c(c1)C(C(Cl)(Cl)Cl)OC(C(Cl)(Cl)Cl)O2 (stereo unspecified) | 134 to 135 °C
34 | CN1CCN(c2ccc(Nc3ncc4cc(C#N)c(=O)n(C5CCCC5)c4n3)cc2)CC1 | 290 to 292 °C
35 | CC(C)(C)c1ccc(C=CC(=O)c2ccc(N3CCN(c4ccncc4)CC3)cc2)cc1 | 213 to 214 °C

The next lines start with the values.

Row | melting point | Structure (SMILES)
36 | 152 °C | COc1ccccc1Oc1c(Cl)ncnc1NS(=O)(=O)c1ccc(C(C)(C)C)cc1
37 | 149 to 150 °C | CCOC(=O)C1=C(C)NC(C)=C(C(=O)OCC)C1c1cccc(F)c1
38 | 144 to 145 °C | CC(=O)OC1CCC2(C)C(=CCC3C2CC(c2cccnc2)C2(C)C=CCC32)C1 (stereo unspecified)
39 | 95 to 97 °C | COc1ccc(CN2CCC(NC(=O)OC(C)(C)C)CC2)cc1
40 | 68 to 70 °C | COc1ccccc1COc1ccc(S(=O)(=O)c2ccc(C)nc2Nc2cc(F)c(N(C)C)cc2Cl)cc1
41 | 174 to 177 °C | Cc1cc(O)cc(O)c1C=O
42 | 157 °C | COc1ccc2nc(SCc3nccc(OC)c3OC)[nH]c2n1
43 | 168 °C | COc1cc2c(cc1OC)CN(CC(O)c1ccc(N)cc1)CC2 (stereo unspecified)
44 | 126 to 128 °C | COc1c(O)ccc(C(=O)c2ccccc2)c1F
45 | 122 to 123 °C | CCCC1CCC2C3CCc4cc(O)c(C=O)cc4C3CCC12C (stereo unspecified)
46 | 182 to 183 °C | COc1cc2c(cc1C=NO)C(C)(C)CCC2(C)C
47 | 173 to 181 °C | COc1ccc(C=C2OC(=O)c3ccccc32)cc1[N+](=O)[O-]
48 | 106 to 107 °C | CC(=O)c1ccc2c(c1)ncn2-c1cccc(C(=O)OC2CCN(C)CC2)c1
49 | 68 to 69 °C | CCc1cc(I)c(CC)cc1I
50 | 162 °C | Cc1c(NC(=O)c2ccc(OC[C@@H]3CCCO3)cc2)ccc2c1cc(CNCC(C)C)n2C
51 | 75 °C | COc1ccc(S(=O)(=O)C2(C(=O)NO)CCN(C(C)C)CC2)cc1
